Laboratory results from patent publication US9670221B2, “Furopyridines as bromodomain inhibitors” (GlaxoSmithKline Intellectual Property (No.2) Limited, priority 2013, dated 2017).
Where a name gives a salt, the structure may show the parent alone.

Target: T1, BRD4 BD1 (Homo sapiens, UniProt O60885, Y390A)
T1 construct: BRD4 (1-477) (Y97A) and (Y390A); made in house; host or cells: E. coli (pET15b vector)
Test: TR-FRET binding assay, BRD4 BD1 (mutant protein)
Settings: BRD4 (1-477) mutant, 10 nM protein, read-out: pIC50 in the BRD4 BD1 assay (converted)
Procedure: Time Resolved Fluorescence Resonance Energy Transfer (TR-FRET) Assay
Binding was assessed using a time resolved fluorescent resonance energy transfer binding assay. This utilises a 6 His purification tag at the N-terminal of the proteins as an epitope for an anti-6 His antibody labeled with Europium chelate (PerkinElmer AD0111) allowing binding of the Europium to the proteins which acts as the donor fluorophore. A small molecule, high affinity binder of the bromodomains BRD2, BRD3, BRD4 and BRDT has been labeled with Alexa Fluor647 (Reference Compound X) and this acts as the acceptor in the FRET pair.
Assay Principle: In the absence of a competing compound, excitation of the Europium causes the donor to emit at λ618 nm which excites the Alexa labelled bromodomain binding compound leading to an increased energy transfer that is measurable at λ647 […]. In the presence of a sufficient concentration of a compound that can bind these proteins, the interaction is disrupted leading to a quantifiable drop in fluorescent resonance energy transfer.
The binding of the compounds of formula (I) to Bromodomains BRD2, BRD3, BRD4 and BRDT was assessed using mutated proteins to detect differential binding to either Binding Domain 1 (BD1) or Binding Domain 2 (BD2) on the bromodomain. These single residue mutations in the acetyl lysine binding pocket greatly lower the affinity of the fluoroligand (Reference Compound X) for the mutated domain (>1000 fold selective for the non-mutated domain). Therefore in the final assay conditions, binding of the fluoroligand to the mutated domain cannot be detected and subsequently the assay is suitable to determine the binding of compounds to the single non-mutated bromodomain.
Protein production: Recombinant Human Bromodomains [(BRD2 (1-473) (Y113A) and (Y386A), BRD3 (1-435) (Y73A) and (Y348A) BRD4 (1-477) (Y97A) and (Y390A) and BRDT (1-397) (Y66A) and (Y309A)] were expressed in E. coli cells (in pET15b vector for BRD2/3/4 and in pET28a vector for BRDT) with a 6-His tag at the N-terminal. The His-tagged Bromodomain pellet was resuspended in 50 mM HEPES (pH7.5), 300 mM NaCl, 10 mM imidazole & 1 μl/mL protease inhibitor cocktail and extracted from the E. coli cells using sonication and purified using a nickel sepharose high performance column, the proteins were washed and then eluted with a linear gradient of 0-500 mM imidazole with buffer 50 mM HEPES (pH7.5), 150 mM NaCl, 500 mM imidazole, over 20 column volumes. Final purification was completed by Superdex 200 prep grade size exclusion column. Purified protein was stored at −80° C. in 20 mM HEPES pH 7.5 and 100 mM NaCl. Protein identity was confirmed by peptide mass fingerprinting and predicted molecular weight confirmed by mass spectrometry.
Protocol for Bromodomain BRD2, 3, 4 and T, BD1^+BD2 mutant assays: All assay components were dissolved in buffer composition of 50 mM HEPES pH7.4, 50 mM NaCl, 5% Glycerol, 1 mM DTT and 1 mM CHAPS. The final concentration of bromodomain proteins were 10 nM and the Alexa Fluor647 ligand was at Kd. These components were premixed and 5 μl of this reaction mixture was added to all wells containing 50 nl of various concentrations of test compound or DMSO vehicle (0.5% DMSO final) in Greiner 384 well black low volume microtitre plates and incubated in dark for 30 minutes at room temperature. 5 μl of detection mixture containing 1.5 nM final concentration anti-6His Europium chelate was added to all wells and a further dark incubation of at least 30 minutes was performed. Plates were then read on the Envision platereader, (λex=317 nm, donor λem=615 nm; acceptor λem=665 nm; Dichroic LANCE dual). Time resolved fluorescent intensity measurements were made at both emission wavelengths and the ratio of acceptor/donor was calculated and used for data analysis. All data was normalized to the mean of 16 high (inhibitor control—Example 11 of WO 2011/054846A1) and 16 low (DMSO) control wells on each plate. […]

Row | SMILES | IC50 [µM]
1 | COCCOc1cc(-c2cn(C)c(=O)c3cc(CN4CCN(S(C)(=O)=O)C[C@H]4C)oc23)ccn1 [Example 26, (R)-7-(2-(2-methoxyethoxy)pyridin-4-yl)-5-methyl-2-((2-methyl-4-(methylsulfonyl)piperazin-1-yl)methyl)furo[3,2-c]pyridin-4(5H)-one] | ≤ 0.1
2 | C[C@@H]1CN(S(C)(=O)=O)CCN1Cc1cc2c(=O)n(C)cc(-c3ccnc(OCCN4CCCC4=O)c3)c2o1 [Example 35, (R)-5-methyl-2-((2-methyl-4-(methylsulfonyl)piperazin-1-yl)methyl)-7-(2-(2-(2-oxopyrrolidin-1-yl)ethoxy)pyridin-4-yl)furo[3,2-c]pyridin-4(5H)-one] | ≤ 0.01
3 | CC(c1cc2c(=O)n(C)cc(-c3ccnc(OCC4CCOCC4)c3)c2o1)N1CCN(S(C)(=O)=O)CC1 (stereo not shown) [Example 21, 5-methyl-2-(1-(4-(methylsulfonyl)piperazin-1-yl)ethyl)-7-(2-((tetrahydro-2H-pyran-4-yl)methoxy)pyridin-4-yl)furo[3,2-c]pyridin-4(5H)-one formate] | ≤ 0.1
4 | CC(=O)Nc1cc(-c2cn(C)c(=O)c3cc(CN4CCNC(=O)CC4)oc23)ccn1 [Example 82, N-(4-(5-methyl-4-oxo-2-((5-oxo-1,4-diazepan-1-yl)methyl)-4,5-dihydrofuro[3,2-c]pyridin-7-yl)pyridin-2-yl)acetamide] | ≤ 0.1
5 | C[C@@H]1CN(S(C)(=O)=O)CCN1Cc1cc2c(=O)n(C)cc(-c3ccnc(N)c3)c2o1 [Example 59, (R)-7-(2-aminopyridin-4-yl)-5-methyl-2-((2-methyl-4-(methylsulfonyl)piperazin-1-yl)methyl)furo[3,2-c]pyridin-4(5H)-one] | ≤ 0.1
6 | CCOc1cnccc1-c1cn(C)c(=O)c2cc(CN3CCN(S(C)(=O)=O)C[C@H]3C)oc12 [Example 52, (R)-7-(3-ethoxypyridin-4-yl)-5-methyl-2-((2-methyl-4-(methylsulfonyl)piperazin-1-yl)methyl)furo[3,2-c]pyridin-4(5H)-one] | ≤ 0.1
7 | CC(=O)Nc1cc(-c2cn(C)c(=O)c3cc(CN4CCN(S(C)(=O)=O)CC4)oc23)ccn1 [Example 37, N-(4-(5-methyl-2-((4-(methylsulfonyl)piperazin-1-yl)methyl)-4-oxo-4,5-dihydrofuro[3,2-c]pyridin-7-yl)pyridin-2-yl)acetamide] | ≤ 0.1
8 | C[C@@H]1CN(S(C)(=O)=O)CCN1Cc1cc2c(=O)n(C)cc(-c3ccncc3OCC3CCOC3)c2o1 (stereo partly drawn) [Example 69, 5-methyl-2-(((R)-2-methyl-4-(methylsulfonyl)piperazin-1-yl)methyl)-7-(3-((tetrahydrofuran-3-yl)methoxy)pyridin-4-yl)furo[3,2-c]pyridin-4(5H)-one] | ≤ 0.1
9 | CN1CCN(Cc2cc3c(=O)n(C)cc(-c4ccncc4OCC4CC4)c3o2)CC1=O [Example 76, 7-(3-(cyclopropylmethoxy)pyridin-4-yl)-5-methyl-2-((4-methyl-3-oxopiperazin-1-yl)methyl)furo[3,2-c]pyridin-4(5H)-one hydrochloride] | ≤ 0.1
10 | C[C@@H]1CN(S(C)(=O)=O)CCN1Cc1cc2c(=O)n(C)cc(-c3ccncc3O)c2o1 [Example 60, (R)-7-(3-hydroxypyridin-4-yl)-5-methyl-2-((2-methyl-4-(methylsulfonyl)piperazin-1-yl)methyl)furo[3,2-c]pyridin-4(5H)-one] | ≤ 0.1
11 | CC(=O)Nc1cc(-c2cn(C)c(=O)c3cc(CN4CCS(=O)(=O)CC4C)oc23)ccn1 (stereo not shown) [Example 102, N-(4-(5-methyl-2-((3-methyl-1,1-dioxidothiomorpholino)methyl)-4-oxo-4,5-dihydrofuro[3,2-c]pyridin-7-yl)pyridin-2-yl)acetamide] | ≤ 0.1
12 | C[C@@H]1CN(S(C)(=O)=O)CCN1Cc1cc2c(=O)n(C)cc(-c3ccncc3OCC3CC3(F)F)c2o1 (stereo partly drawn) [Example 61, 7-(3-((2,2-difluorocyclopropyl)methoxy)pyridin-4-yl)-5-methyl-2-(((R)-2-methyl-4-(methylsulfonyl)piperazin-1-yl)methyl)furo[3,2-c]pyridin-4(5H)-one] | ≤ 0.01
13 | C[C@@H]1CN(S(C)(=O)=O)CCN1Cc1cc2c(=O)n(C)cc(-c3cccc(N)c3)c2o1 [Example 50, (R)-7-(3-aminophenyl)-5-methyl-2-((2-methyl-4-(methylsulfonyl)piperazin-1-yl)methyl)furo[3,2-c]pyridin-4(5H)-one] | ≤ 0.1
14 | C[C@@H]1CN(S(C)(=O)=O)CCN1Cc1cc2c(=O)n(C)cc(-c3ccnc(OCCN4CCCC4)c3)c2o1 [Example 27, (R)-5-methyl-2-((2-methyl-4-(methylsulfonyl)piperazin-1-yl)methyl)-7-(2-(2-(pyrrolidin-1-yl)ethoxy)pyridin-4-yl)furo[3,2-c]pyridin-4(5H)-one] | ≤ 0.1
15 | Cn1cc(-c2ccncc2OCC2CC2)c2oc(CN3CCNC(=O)C3)cc2c1=O [Example 71, 7-(3-(cyclopropylmethoxy)pyridin-4-yl)-5-methyl-2-((3-oxopiperazin-1-yl)methyl)furo[3,2-c]pyridin-4(5H)-one hydrochloride] | ≤ 0.1
16 | CC(C)Oc1cnccc1-c1cn(C)c(=O)c2cc(CN3CCN(S(C)(=O)=O)C[C@H]3C)oc12 [Example 58, (R)-7-(3-isopropoxypyridin-4-yl)-5-methyl-2-((2-methyl-4-(methylsulfonyl)piperazin-1-yl)methyl)furo[3,2-c]pyridin-4(5H)-one] | ≤ 0.1
17 | CCNC(=O)c1ccc(-c2cn(C)c(=O)c3cc(CN4CCN(S(C)(=O)=O)CC4)oc23)c(OCC2CC2)c1 [Example 68, 3-(cyclopropylmethoxy)-N-ethyl-4-(5-methyl-2-((4-(methylsulfonyl)piperazin-1-yl)methyl)-4-oxo-4,5-dihydrofuro[3,2-c]pyridin-7-yl)benzamide] | ≤ 0.1
18 | Cl.[2H]C([2H])([2H])n1cc(-c2ccnc(NC(C)=O)c2)c2oc(CN3CCN(S(C)(=O)=O)C[C@H]3C)cc2c1=O [Example 62, (R)-N-(4-(5-(^2H3)methyl-2-((2-methyl-4-(methylsulfonyl)piperazin-1-yl)methyl)-4-oxo-4,5-dihydrofuro[3,2-c]pyridin-7-yl)pyridin-2-yl)acetamide] | ≤ 0.1
19 | CC(=O)Nc1cc(-c2cn(C)c(=O)c3cc(CN4CCS(=O)(=O)CC4)oc23)ccn1 [Example 87, N-(4-(2-((1,1-dioxidothiomorpholino)methyl)-5-methyl-4-oxo-4,5-dihydrofuro[3,2-c]pyridin-7-yl)pyridin-2-yl)acetamide] | ≤ 0.1
20 | COC(C)COc1cnccc1-c1cn(C)c(=O)c2cc(CN3CCN(S(C)(=O)=O)C[C@H]3C)oc12 (stereo partly drawn) [Example 78, 7-(3-(2-methoxypropoxy)pyridin-4-yl)-5-methyl-2-(((R)-2-methyl-4-(methylsulfonyl)piperazin-1-yl)methyl)furo[3,2-c]pyridin-4(5H)-one] | ≤ 0.1
21 | CC(=O)Nc1cc(-c2cn(C)c(=O)c3cc(CN4CCN(S(C)(=O)=O)C[C@H]4C)oc23)ccn1 [Example 2, (R)—N-(4-(5-methyl-2-((2-methyl-4-(methylsulfonyl)piperazin-1-yl)methyl)-4-oxo-4,5-dihydrofuro[3,2-c]pyridin-7-yl)pyridin-2-yl)acetamide] | ≤ 0.1
22 | CC(=O)Nc1cc(-c2cn(C)c(=O)c3cc(CN4CCN(S(C)(=O)=O)[C@@H](C)C4)oc23)ccn1 [Example 108, (S)—N-(4-(5-methyl-2-((3-methyl-4-(methylsulfonyl)piperazin-1-yl)methyl)-4-oxo-4,5-dihydrofuro[3,2-c]pyridin-7-yl)pyridin-2-yl)acetamide] | ≤ 0.1
